In ChEMBL document CHEMBL1125329, “4-Oxospiro[benzopyran-2,4'-piperidines] as class III antiarrhythmic agents. Pharmacological studies on 3,4-dihydro-1'-[2-(benzofurazan-5-yl)- ethyl]-6-methanesulfonamidospiro[(2H)-1-benzopyran-2,4'-piperidin]-4-on e (L-691,121)” (J Med Chem, 1992):

Experiments:
Canis familiaris = assay: Compound was evaluated for the intravenous dose required to prolong relative refractory period (RRP) 20 ms above baseline in chloralose anesthetized dogs using a paired pacing protocol; format: functional; details: Canis lupus familiaris
Mustela putorius furo = species: Mustela putorius furo; assay: Compound was evaluated for the molar concentration required to prolong effective refractory period (ERP) 25% above baseline in ferret isolated right ventricular papillary muscles using a paired pacing protocol; format: functional, Muscle tissue
[1] = target: T1, Alpha-1A adrenergic receptor (Bos taurus, UniProt P18130); assay: Compound was evaluated for binding affinity at bovine brain Alpha-1 adrenergic receptor determined in a filtration-based assay using [3H]prazosin as the radioligand.
T1 sequence (P18130 whole entry): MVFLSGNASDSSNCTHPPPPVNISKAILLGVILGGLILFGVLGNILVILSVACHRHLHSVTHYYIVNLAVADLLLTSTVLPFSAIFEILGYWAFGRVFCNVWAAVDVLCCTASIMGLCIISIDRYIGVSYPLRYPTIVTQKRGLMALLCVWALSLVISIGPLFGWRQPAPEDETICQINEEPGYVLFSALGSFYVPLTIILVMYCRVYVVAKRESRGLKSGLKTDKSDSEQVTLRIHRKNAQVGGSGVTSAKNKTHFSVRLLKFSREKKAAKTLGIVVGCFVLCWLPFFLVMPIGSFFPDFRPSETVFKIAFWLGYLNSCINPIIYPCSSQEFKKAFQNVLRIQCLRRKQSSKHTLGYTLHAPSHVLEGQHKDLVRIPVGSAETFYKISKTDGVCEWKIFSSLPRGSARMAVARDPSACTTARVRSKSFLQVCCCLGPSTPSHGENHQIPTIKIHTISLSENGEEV

[2] = target: T1, Alpha-1A adrenergic receptor; assay: Compound was evaluated for binding affinity at bovine brain Alpha-1 adrenergic receptor in a filtration-based assay using [3H]prazosin as the radioligand

IC50 [1] | IC50 [2] | Compound | ED20 (Canis familiaris) | EC25 (Mustela putorius furo)
900 nM |  | CS(=O)(=O)Nc1ccc2c(c1)C(=O)CC1(CCN(CCc3ccc([N+](=O)[O-])cc3)CC1)O2.Cl |  | 5 nM
 | 100 nM | CS(=O)(=O)Nc1ccc2c(c1)C(=O)CC1(CCN(CCc3ccccc3)CC1)O2.Cl | 5 µg/kg | 7 nM
 | 15000 nM | CS(=O)(=O)Nc1ccc(CCN2CCC3(CC2)CC(=O)c2cc(NS(C)(=O)=O)ccc2O3)cc1.Cl | 3 µg/kg | 74 nM
 | 500 nM | CS(=O)(=O)Nc1ccc2c(c1)C(=O)CC1(CCN(CCc3ccccn3)CC1)O2.Cl.O | 10 µg/kg | 33 nM
 | 1000 nM | CS(=O)(=O)Nc1ccc2c(c1)C(=O)CC1(CCN(CCc3ccc(C#N)cc3)CC1)O2.Cl | 7 µg/kg | 3 nM

Further lines, the molecule ahead of its results:

Compound | IC50 [1] | IC50 [2] | ED20 (Canis familiaris) | EC25 (Mustela putorius furo)
CS(=O)(=O)Nc1ccc2c(c1)C(=O)CC1(CCN(CCc3ccc4nonc4c3)CC1)O2.Cl |  |  | 2.8 µg/kg | 13 nM
CS(=O)(=O)Nc1ccc2c(c1)C(O)CC1(CCN(CCc3ccc4nonc4c3)CC1)O2.Cl (centres undefined) |  | 2300 nM | 200 µg/kg | 900 nM
Cc1cccc(CCN2CCC(C(=O)c3ccc(NS(C)(=O)=O)cc3)CC2)n1 |  |  | 17.4 µg/kg | 58 nM
CS(=O)(=O)Nc1ccc2c(c1)CCC1(CCN(CCc3ccc4nonc4c3)CC1)O2.Cl |  | 3000 nM |  | 54 nM
CS(=O)(=O)Nc1ccc2c(c1)OC1(CCN(CCc3ccccn3)CC1)CC2=O.Cl.O |  |  |  | 6600 nM
Cl.O=C1CC2(CCN(CCc3ccccn3)CC2)Oc2ccccc21 |  |  | 500 µg/kg | 160 nM
CS(=O)(=O)Nc1cccc2c1OC1(CCN(CCc3ccccn3)CC1)CC2=O.Cl.O |  |  |  | 7400 nM
CN(CCOc1ccc(NS(C)(=O)=O)cc1)CCc1ccc(NS(C)(=O)=O)cc1 [DOFETILIDE] |  |  | 5.2 µg/kg | 18 nM
